Test results as given in the kinase profiling compilation of Christmann-Franck et al. (2016).

Target: FGFR3 (human) (UniProt P22607)
Experiment: KINOMEscan competition binding
Details: compound 10.0 µM

| SMILES | kinase still bound, per cent of control |
| --- | --- |
| CCN1CCN(Cc2ccc(NC(=O)c3ccc(C)c(/C=C/c4cnc(Nc5cc(N6CCNCC6)nc(C)n5)cn4)c3)cc2C(F)(F)F)CC1 | 12% |
| COc1cc(N2CCC(N3CCN(C)CC3)CC2)ccc1Nc1ncc(Cl)c(Nc2ccccc2S(=O)(=O)C(C)C)n1 | 2.6% |
| CCOc1cc(N2CCC(N3CCCCC3)CC2)ccc1Nc1nc(Nc2ccccc2S(=O)(=O)C(C)C)c2cn[nH]c2n1 | 94% |
| CCN1CCN(Cc2ccc(NC(=O)c3ccc(C)c(Oc4ccnc5[nH]ccc45)c3)cc2C(F)(F)F)CC1 | 9.4% |

Target: ABL2 (human) (UniProt P42684)
Experiment: KINOMEscan competition binding
Details: compound 10.0 µM

Chain of ABL2 (human) (P42684 whole entry, looked up): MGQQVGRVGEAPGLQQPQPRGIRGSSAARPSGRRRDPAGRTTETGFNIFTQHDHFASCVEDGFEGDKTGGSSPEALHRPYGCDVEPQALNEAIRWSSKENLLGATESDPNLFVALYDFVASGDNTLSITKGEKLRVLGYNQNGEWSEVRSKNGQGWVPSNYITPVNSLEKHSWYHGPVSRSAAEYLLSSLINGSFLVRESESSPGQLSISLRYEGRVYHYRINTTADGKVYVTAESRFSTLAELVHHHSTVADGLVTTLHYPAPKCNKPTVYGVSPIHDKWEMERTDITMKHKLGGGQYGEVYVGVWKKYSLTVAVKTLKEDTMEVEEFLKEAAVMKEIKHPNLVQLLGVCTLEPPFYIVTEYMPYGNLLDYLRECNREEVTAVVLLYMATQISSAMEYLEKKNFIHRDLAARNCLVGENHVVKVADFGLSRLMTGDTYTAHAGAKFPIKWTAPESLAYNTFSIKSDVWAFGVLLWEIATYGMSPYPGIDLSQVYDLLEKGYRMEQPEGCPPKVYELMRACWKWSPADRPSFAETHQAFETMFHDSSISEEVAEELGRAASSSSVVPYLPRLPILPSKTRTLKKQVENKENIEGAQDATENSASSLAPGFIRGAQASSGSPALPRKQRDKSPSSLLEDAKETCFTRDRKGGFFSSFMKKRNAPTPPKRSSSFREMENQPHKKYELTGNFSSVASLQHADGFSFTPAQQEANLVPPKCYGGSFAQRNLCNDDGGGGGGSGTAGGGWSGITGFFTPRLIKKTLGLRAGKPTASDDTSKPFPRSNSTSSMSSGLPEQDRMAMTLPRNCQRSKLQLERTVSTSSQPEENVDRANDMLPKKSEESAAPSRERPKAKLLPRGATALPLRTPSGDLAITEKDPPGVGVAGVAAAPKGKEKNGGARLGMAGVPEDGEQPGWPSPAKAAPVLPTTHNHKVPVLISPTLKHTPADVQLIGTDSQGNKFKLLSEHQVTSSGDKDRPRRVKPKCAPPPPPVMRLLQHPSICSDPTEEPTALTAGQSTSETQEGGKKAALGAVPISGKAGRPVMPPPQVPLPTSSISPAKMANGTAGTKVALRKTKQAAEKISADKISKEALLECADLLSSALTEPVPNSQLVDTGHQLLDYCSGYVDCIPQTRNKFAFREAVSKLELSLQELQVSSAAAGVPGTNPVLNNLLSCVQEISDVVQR

| SMILES | kinase still bound, per cent of control |
| --- | --- |
| CCN1CCN(Cc2ccc(NC(=O)c3ccc(C)c(/C=C/c4cnc(Nc5cc(N6CCNCC6)nc(C)n5)cn4)c3)cc2C(F)(F)F)CC1 | 0.7% |
| COc1cc(N2CCC(N3CCN(C)CC3)CC2)ccc1Nc1ncc(Cl)c(Nc2ccccc2S(=O)(=O)C(C)C)n1 | 1.4% |
| CCOc1cc(N2CCC(N3CCCCC3)CC2)ccc1Nc1nc(Nc2ccccc2S(=O)(=O)C(C)C)c2cn[nH]c2n1 | 97% |
| CCN1CCN(Cc2ccc(NC(=O)c3ccc(C)c(Oc4ccnc5[nH]ccc45)c3)cc2C(F)(F)F)CC1 | 0.6% |

Target: MLTK (human) (UniProt Q9NYL2)
Experiment: KINOMEscan competition binding
Details: compound 10.0 µM

| SMILES | kinase still bound, per cent of control |
| --- | --- |
| CCN1CCN(Cc2ccc(NC(=O)c3ccc(C)c(/C=C/c4cnc(Nc5cc(N6CCNCC6)nc(C)n5)cn4)c3)cc2C(F)(F)F)CC1 | 1.2% |
| COc1cc(N2CCC(N3CCN(C)CC3)CC2)ccc1Nc1ncc(Cl)c(Nc2ccccc2S(=O)(=O)C(C)C)n1 | 40% |
| CCOc1cc(N2CCC(N3CCCCC3)CC2)ccc1Nc1nc(Nc2ccccc2S(=O)(=O)C(C)C)c2cn[nH]c2n1 | 100% |
| CCN1CCN(Cc2ccc(NC(=O)c3ccc(C)c(Oc4ccnc5[nH]ccc45)c3)cc2C(F)(F)F)CC1 | 0.35% |

Target: TSSK1B (human) (UniProt Q9BXA7)
Experiment: KINOMEscan competition binding
Details: compound 10.0 µM

Chain of TSSK1B (human) (Q9BXA7 whole entry, looked up): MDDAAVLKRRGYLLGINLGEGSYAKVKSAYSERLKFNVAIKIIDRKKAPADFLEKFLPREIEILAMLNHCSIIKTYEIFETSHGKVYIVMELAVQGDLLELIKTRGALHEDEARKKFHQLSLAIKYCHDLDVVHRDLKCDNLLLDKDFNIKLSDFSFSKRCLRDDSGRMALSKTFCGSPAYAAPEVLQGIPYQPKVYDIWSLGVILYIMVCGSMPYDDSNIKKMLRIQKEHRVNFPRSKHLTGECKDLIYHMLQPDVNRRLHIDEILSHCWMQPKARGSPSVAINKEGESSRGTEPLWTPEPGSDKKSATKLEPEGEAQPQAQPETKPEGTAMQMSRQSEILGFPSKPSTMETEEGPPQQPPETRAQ

| SMILES | kinase still bound, per cent of control |
| --- | --- |
| CCN1CCN(Cc2ccc(NC(=O)c3ccc(C)c(/C=C/c4cnc(Nc5cc(N6CCNCC6)nc(C)n5)cn4)c3)cc2C(F)(F)F)CC1 | 100% |
| COc1cc(N2CCC(N3CCN(C)CC3)CC2)ccc1Nc1ncc(Cl)c(Nc2ccccc2S(=O)(=O)C(C)C)n1 | 0% |
| CCOc1cc(N2CCC(N3CCCCC3)CC2)ccc1Nc1nc(Nc2ccccc2S(=O)(=O)C(C)C)c2cn[nH]c2n1 | 92% |

Target: MAPK7 (human) (UniProt Q13164)
Experiment: KINOMEscan competition binding
Details: compound 10.0 µM

Chain of MAPK7 (human) (Q13164 whole entry, looked up): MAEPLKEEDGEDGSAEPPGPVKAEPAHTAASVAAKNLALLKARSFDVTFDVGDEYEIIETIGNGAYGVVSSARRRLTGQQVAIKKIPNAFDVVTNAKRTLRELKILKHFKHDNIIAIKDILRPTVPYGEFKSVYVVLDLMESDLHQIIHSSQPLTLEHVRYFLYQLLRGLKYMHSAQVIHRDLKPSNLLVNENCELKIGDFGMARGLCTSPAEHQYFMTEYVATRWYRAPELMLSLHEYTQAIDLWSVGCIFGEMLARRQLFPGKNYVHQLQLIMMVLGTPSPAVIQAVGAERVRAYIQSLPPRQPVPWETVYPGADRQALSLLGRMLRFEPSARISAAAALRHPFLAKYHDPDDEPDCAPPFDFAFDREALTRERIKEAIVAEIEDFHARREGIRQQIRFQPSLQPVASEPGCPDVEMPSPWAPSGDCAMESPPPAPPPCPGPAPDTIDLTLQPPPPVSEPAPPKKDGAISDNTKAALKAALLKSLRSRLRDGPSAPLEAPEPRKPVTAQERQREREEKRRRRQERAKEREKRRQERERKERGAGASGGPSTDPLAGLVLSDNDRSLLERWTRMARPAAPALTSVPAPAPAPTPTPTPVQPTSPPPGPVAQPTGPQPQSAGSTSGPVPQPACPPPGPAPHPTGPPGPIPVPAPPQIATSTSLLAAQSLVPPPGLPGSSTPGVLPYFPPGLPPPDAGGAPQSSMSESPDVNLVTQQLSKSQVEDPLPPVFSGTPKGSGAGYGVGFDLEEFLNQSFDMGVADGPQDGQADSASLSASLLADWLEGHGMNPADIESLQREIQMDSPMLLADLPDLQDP

| SMILES | kinase still bound, per cent of control |
| --- | --- |
| CCN1CCN(Cc2ccc(NC(=O)c3ccc(C)c(/C=C/c4cnc(Nc5cc(N6CCNCC6)nc(C)n5)cn4)c3)cc2C(F)(F)F)CC1 | 100% |
| COc1cc(N2CCC(N3CCN(C)CC3)CC2)ccc1Nc1ncc(Cl)c(Nc2ccccc2S(=O)(=O)C(C)C)n1 | 0% |
| CCOc1cc(N2CCC(N3CCCCC3)CC2)ccc1Nc1nc(Nc2ccccc2S(=O)(=O)C(C)C)c2cn[nH]c2n1 | 0.9% |

Tested on: EGFR (human), P00533 [L861Q]
Experiment: KINOMEscan competition binding
Details: compound 10.0 µM

| SMILES | kinase still bound, per cent of control |
| --- | --- |
| CCN1CCN(Cc2ccc(NC(=O)c3ccc(C)c(/C=C/c4cnc(Nc5cc(N6CCNCC6)nc(C)n5)cn4)c3)cc2C(F)(F)F)CC1 | 0.85% |
| COc1cc(N2CCC(N3CCN(C)CC3)CC2)ccc1Nc1ncc(Cl)c(Nc2ccccc2S(=O)(=O)C(C)C)n1 | 0.15% |
| CCOc1cc(N2CCC(N3CCCCC3)CC2)ccc1Nc1nc(Nc2ccccc2S(=O)(=O)C(C)C)c2cn[nH]c2n1 | 7.7% |
| CCN1CCN(Cc2ccc(NC(=O)c3ccc(C)c(Oc4ccnc5[nH]ccc45)c3)cc2C(F)(F)F)CC1 | 15% |

Target: ULK3 (human) (UniProt Q6PHR2)
Experiment: KINOMEscan competition binding
Details: compound 10.0 µM

Chain of ULK3 (human) (Q6PHR2 whole entry, looked up): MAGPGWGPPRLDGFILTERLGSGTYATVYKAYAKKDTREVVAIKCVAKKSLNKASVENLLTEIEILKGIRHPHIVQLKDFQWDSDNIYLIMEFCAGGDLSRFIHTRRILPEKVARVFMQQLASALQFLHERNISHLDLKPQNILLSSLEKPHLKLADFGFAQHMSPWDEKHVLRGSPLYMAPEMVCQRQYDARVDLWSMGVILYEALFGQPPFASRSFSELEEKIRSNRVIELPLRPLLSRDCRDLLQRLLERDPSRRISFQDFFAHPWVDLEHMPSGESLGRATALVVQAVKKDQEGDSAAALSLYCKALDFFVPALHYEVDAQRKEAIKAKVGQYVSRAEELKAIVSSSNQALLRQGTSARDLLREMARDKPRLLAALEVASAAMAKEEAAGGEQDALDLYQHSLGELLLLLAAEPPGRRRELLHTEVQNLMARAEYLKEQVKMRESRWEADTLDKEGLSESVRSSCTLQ

| SMILES | kinase still bound, per cent of control |
| --- | --- |
| CCN1CCN(Cc2ccc(NC(=O)c3ccc(C)c(/C=C/c4cnc(Nc5cc(N6CCNCC6)nc(C)n5)cn4)c3)cc2C(F)(F)F)CC1 | 1.6% |
| COc1cc(N2CCC(N3CCN(C)CC3)CC2)ccc1Nc1ncc(Cl)c(Nc2ccccc2S(=O)(=O)C(C)C)n1 | 0% |
| CCOc1cc(N2CCC(N3CCCCC3)CC2)ccc1Nc1nc(Nc2ccccc2S(=O)(=O)C(C)C)c2cn[nH]c2n1 | 100% |
| CCN1CCN(Cc2ccc(NC(=O)c3ccc(C)c(Oc4ccnc5[nH]ccc45)c3)cc2C(F)(F)F)CC1 | 0.1% |

Target: CLK2 (human) (UniProt P49760)
Experiment: KINOMEscan competition binding
Details: compound 10.0 µM

Chain of CLK2 (human) (P49760 whole entry, looked up): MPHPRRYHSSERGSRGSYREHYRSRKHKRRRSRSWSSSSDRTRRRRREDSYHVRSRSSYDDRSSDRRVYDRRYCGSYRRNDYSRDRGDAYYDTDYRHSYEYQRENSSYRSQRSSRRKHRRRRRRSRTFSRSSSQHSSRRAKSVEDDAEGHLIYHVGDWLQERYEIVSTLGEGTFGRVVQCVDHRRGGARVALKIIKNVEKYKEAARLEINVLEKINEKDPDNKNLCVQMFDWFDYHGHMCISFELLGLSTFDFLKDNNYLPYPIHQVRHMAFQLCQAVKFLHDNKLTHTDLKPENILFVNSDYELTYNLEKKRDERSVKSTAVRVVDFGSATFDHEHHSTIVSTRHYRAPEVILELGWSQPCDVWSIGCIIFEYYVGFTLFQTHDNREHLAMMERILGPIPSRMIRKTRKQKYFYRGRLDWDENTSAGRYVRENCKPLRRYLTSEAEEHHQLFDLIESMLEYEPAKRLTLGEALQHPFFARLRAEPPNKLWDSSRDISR

| SMILES | kinase still bound, per cent of control |
| --- | --- |
| CCN1CCN(Cc2ccc(NC(=O)c3ccc(C)c(/C=C/c4cnc(Nc5cc(N6CCNCC6)nc(C)n5)cn4)c3)cc2C(F)(F)F)CC1 | 86% |
| COc1cc(N2CCC(N3CCN(C)CC3)CC2)ccc1Nc1ncc(Cl)c(Nc2ccccc2S(=O)(=O)C(C)C)n1 | 0% |
| CCOc1cc(N2CCC(N3CCCCC3)CC2)ccc1Nc1nc(Nc2ccccc2S(=O)(=O)C(C)C)c2cn[nH]c2n1 | 2.2% |

Target: AAK1 (human) (UniProt Q2M2I8)
Experiment: KINOMEscan competition binding
Details: compound 10.0 µM

Chain of AAK1 (human) (Q2M2I8 whole entry, looked up): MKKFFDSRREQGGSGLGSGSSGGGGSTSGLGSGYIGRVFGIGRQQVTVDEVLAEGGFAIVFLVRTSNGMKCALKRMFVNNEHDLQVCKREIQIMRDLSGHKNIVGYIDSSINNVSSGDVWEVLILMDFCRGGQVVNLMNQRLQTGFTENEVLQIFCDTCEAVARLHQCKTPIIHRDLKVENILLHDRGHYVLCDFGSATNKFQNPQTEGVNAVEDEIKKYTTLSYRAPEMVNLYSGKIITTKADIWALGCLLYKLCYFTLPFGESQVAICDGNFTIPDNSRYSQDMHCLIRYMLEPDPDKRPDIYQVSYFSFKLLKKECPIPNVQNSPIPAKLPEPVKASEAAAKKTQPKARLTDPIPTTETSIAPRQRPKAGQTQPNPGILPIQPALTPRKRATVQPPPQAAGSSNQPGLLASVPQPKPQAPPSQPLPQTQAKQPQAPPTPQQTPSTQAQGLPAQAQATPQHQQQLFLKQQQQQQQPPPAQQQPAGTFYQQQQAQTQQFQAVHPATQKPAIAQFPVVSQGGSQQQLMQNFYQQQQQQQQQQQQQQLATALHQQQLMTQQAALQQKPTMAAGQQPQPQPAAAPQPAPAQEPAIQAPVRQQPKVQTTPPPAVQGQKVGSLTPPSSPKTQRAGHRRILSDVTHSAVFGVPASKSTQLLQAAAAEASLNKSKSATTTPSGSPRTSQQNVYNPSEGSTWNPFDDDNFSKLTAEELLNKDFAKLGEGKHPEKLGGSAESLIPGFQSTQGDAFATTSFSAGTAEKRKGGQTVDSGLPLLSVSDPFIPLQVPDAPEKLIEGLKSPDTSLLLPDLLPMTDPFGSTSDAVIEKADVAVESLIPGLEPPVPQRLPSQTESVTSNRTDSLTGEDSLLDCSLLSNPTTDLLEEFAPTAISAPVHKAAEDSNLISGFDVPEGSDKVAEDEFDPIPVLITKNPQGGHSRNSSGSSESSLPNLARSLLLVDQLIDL

| SMILES | kinase still bound, per cent of control |
| --- | --- |
| CCN1CCN(Cc2ccc(NC(=O)c3ccc(C)c(/C=C/c4cnc(Nc5cc(N6CCNCC6)nc(C)n5)cn4)c3)cc2C(F)(F)F)CC1 | 84% |
| COc1cc(N2CCC(N3CCN(C)CC3)CC2)ccc1Nc1ncc(Cl)c(Nc2ccccc2S(=O)(=O)C(C)C)n1 | 2.8% |
| CCOc1cc(N2CCC(N3CCCCC3)CC2)ccc1Nc1nc(Nc2ccccc2S(=O)(=O)C(C)C)c2cn[nH]c2n1 | 69% |

Target: PIP5K1A (human) (UniProt Q99755)
Experiment: KINOMEscan competition binding
Details: compound 10.0 µM

Chain of PIP5K1A (human) (Q99755 whole entry, looked up): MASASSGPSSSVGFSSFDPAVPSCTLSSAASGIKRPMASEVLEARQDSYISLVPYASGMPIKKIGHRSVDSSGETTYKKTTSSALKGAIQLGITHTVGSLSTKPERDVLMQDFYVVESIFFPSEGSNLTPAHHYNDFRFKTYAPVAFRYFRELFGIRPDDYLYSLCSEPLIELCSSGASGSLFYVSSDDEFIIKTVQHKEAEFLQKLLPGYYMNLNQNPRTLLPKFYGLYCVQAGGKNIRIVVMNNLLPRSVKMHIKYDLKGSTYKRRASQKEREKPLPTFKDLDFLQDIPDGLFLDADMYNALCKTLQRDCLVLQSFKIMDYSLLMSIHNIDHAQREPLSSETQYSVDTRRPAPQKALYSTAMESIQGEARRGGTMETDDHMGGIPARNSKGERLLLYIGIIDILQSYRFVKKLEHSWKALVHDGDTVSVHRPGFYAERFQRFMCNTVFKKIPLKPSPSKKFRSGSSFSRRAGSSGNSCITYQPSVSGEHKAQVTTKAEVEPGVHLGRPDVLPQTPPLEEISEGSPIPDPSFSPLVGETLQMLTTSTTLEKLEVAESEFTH

| SMILES | kinase still bound, per cent of control |
| --- | --- |
| CCN1CCN(Cc2ccc(NC(=O)c3ccc(C)c(/C=C/c4cnc(Nc5cc(N6CCNCC6)nc(C)n5)cn4)c3)cc2C(F)(F)F)CC1 | 86% |
| COc1cc(N2CCC(N3CCN(C)CC3)CC2)ccc1Nc1ncc(Cl)c(Nc2ccccc2S(=O)(=O)C(C)C)n1 | 1.3% |
| CCOc1cc(N2CCC(N3CCCCC3)CC2)ccc1Nc1nc(Nc2ccccc2S(=O)(=O)C(C)C)c2cn[nH]c2n1 | 39% |

Target: ITK (human) (UniProt Q08881)
Experiment: KINOMEscan competition binding
Details: compound 10.0 µM

| SMILES | kinase still bound, per cent of control |
| --- | --- |
| CCN1CCN(Cc2ccc(NC(=O)c3ccc(C)c(/C=C/c4cnc(Nc5cc(N6CCNCC6)nc(C)n5)cn4)c3)cc2C(F)(F)F)CC1 | 86% |
